By IC50 is commonly meant the point on the concentration scale where inhibition reaches its midpoint. Read a high IC50 as weaker potency.

Entries after “also recorded” stand apart in the source; their conditions may differ.

For one data set, the target named is T1, mGAT3 (Mus musculus, UniProt P31649).
T1 sequence (P31649 1-602): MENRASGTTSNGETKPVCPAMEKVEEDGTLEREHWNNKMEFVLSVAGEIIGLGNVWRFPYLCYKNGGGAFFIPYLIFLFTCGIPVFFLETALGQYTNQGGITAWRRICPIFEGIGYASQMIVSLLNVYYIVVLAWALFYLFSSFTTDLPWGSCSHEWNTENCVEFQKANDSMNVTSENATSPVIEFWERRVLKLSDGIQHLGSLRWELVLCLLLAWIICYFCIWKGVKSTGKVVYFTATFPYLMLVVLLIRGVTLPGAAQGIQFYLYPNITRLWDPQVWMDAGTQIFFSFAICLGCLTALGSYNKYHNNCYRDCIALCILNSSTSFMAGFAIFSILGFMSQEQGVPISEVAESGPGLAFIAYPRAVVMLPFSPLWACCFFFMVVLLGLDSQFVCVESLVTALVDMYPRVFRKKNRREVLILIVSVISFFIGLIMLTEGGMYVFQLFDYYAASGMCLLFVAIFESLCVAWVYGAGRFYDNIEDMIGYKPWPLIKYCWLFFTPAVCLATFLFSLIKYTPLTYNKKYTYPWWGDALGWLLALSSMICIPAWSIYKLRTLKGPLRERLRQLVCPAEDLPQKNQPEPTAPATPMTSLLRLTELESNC
The data set is described as follows: [3H]GABA uptake assay, mGAT3. The format is cell-based.

For another data set, the system named is SIM-A9 cells. The data set is described as follows: LC-MS determination of total MDA, SIM-A9. The data set is classed as cell-based, mouse. Conditions: all time intervals.
In data set [1] the test system is mice treated with scopolamine. The data set is described as follows: Barnes maze (BM) task. The data set is classed as in vivo, C57BL/6J mice. As for the experimental part:
Animals and housing conditions
In all pharmacodynamic in vivo experiments, except for the Barnes maze (BM) task, adult male Albino Swiss (CD-1) mice weighing between 18 and 22 g and purchased from the Animal Breeding Farm of the Faculty of Pharmacy, Jagiellonian University Medical College were used. In BM task, C57BL/6J mice of the same weight (Animalab, Poland) were used.
Animals were housed in cages (10 mice per cage) at a constant temperature of 22 ± 2 °C, humidity of 55 ± 10%, and a light/dark (12:12) cycle (lights on at 7 AM). Before the experiments, the animals had unlimited access to food and water. Specified conditions for the maintenance of mice were ensured throughout the experiments, including tree bedding (Transwior, Poland) and cage enrichment (tunnels, nesting material, wooden igloos, etc.). For the behavioral test, the mice were selected randomly; each group consisted of 7-12 mice. The experiments were performed between 9 AM and 3 PM. After in vivo tests, the animals were […]
Ethical approval statement
The procedures for the maintenance and treatment of laboratory animals were approved by the 1st Local Ethics Committee of the Jagiellonian University in Krakow (Approvals No.
524/2021, 618/2022), and the treatment of animals was in full accordance with ethical […]
Drugs and dose selection for the in vivo tests
For in vivo assays 6 was suspended in 1% Tween 80 (Sigma Aldrich, Poland) and administered intraperitoneally (i.p.) 60 min before the acquisition trial of the passive avoidance (PA) task, BM task and 60 min before the forced swim test (FST), four-plate test (FPT) and elevated plus maze (EPM) test. Doses 10 mg/kg and 30 mg/kg were the starting […]
doses for behavioral assays. Lower doses were also assessed if at least one of them was […]
Scopolamine hydrobromide used at the dose of 1 mg/kg for the induction of learning and memory deficits was supplied by Sigma Aldrich (Poland). The dose of scopolamine was chosen based on our previous studies[44,45] and available literature data.[46] […]
Effect on spatial learning and memory – Barnes maze task
Spatial learning and memory in mice were also assessed using the BM task.[47] This task was performed with the BM apparatus (Panlab-Harvard Apparatus, Spain). It consists of a circular, dry, open platform surface equipped with 18 holes around the perimeter of the platform and a small dark recessed chamber located under one of them. Visual extra-maze cues (pictures of colored geometric figures with contrasting backgrounds placed at a distance of 1 m from the platform) were provided to facilitate learning. A weak aversive stimulus (light 600 lx) was applied to increase the animals’ motivation to escape from the circular platform.
The spatial acquisition trial was performed during the first 4 days of the experiment. On the first day of the test, an additional adaptation period preceded a proper trial. In this phase, mice were individually placed in a cylindrical black start chamber in the middle of the circular maze. Ten seconds later, the mouse was released from the start chamber, the light was turned on, and the animal was gently guided to the escape box (a small dark recessed chamber under the BM platform), where it remained for the next 2 min. This phase was not preceded by drug […]
In the spatial acquisition phase, each mouse was subjected to four trials daily, keeping 15-min intervals between each trial. […]

For the next data set, the target named is mGAT1 (Mus musculus, UniProt P31648). Kind of data set: [3H]GABA uptake assay, mGAT1. The format is cell-based.
Setting [2] is: 10 mg/kg i.p. + scopolamine, vs scopolamine control.
The mark [3] stands for this setting: 10 mg/kg, retention trial, vs scopolamine control.

Compound `O[C@H](CNCC1CC1)[C@H](Cc1ccccc1)NC1c2ccccc2-c2ccccc21` [Compound 6] gave an IC50 against mGAT3 of 7.41 ± 0.69 µM. Also, the “increase in intracellular level of MDA” value in the data set with SIM-A9 cells is recorded as “no significant increase”. Further, in data set [1] (setting [2]), the “latency to target, acquisition trial” value is reported as “Statistically significant differences were also observed on day 4; also recorded: statistically significantly reduced latency to target” and the “number of errors, acquisition phase (days 1-4)” value was “no statistically significant differences in the number of errors”. Moreover, the “number of errors, day 5” value in data set [1] (10 mg/kg, drug-off trial) is listed as “no significant differences among groups”. Besides, in data set [1] (setting [3]), the “latency to former target location, day 12” value is recorded as “A similar effect was noted; also recorded: significantly shortened the latency to former target location” and the “number of errors, day 12” value is “significantly reduced number of errors made; also recorded: reduced the number of errors”. The IC50 against mGAT1 is 11 µM.
